In assay [1] the target is T1, human sphingosine-1-phosphate receptor 1 (S1P1) (Homo sapiens, UniProt P21453). The assay is described as follows: β-Arrestin2 recruitment assay (PathHunter), S1P1 CHO-K1 cells. It counts as cell-based. The following applies: for Emax: efficacy normalized to maximum efficacy of fingolimod, read-out: hS1P1 B-arrestin2 SPAN; for EC50: β-arrestin2 recruitment, read-out: hS1P1 B-arrestin2 pEC50 (converted). The method, then:
Stable clonal Chinese hamster ovary K1 (CHO-K1) cells co-expressing EA-β-arrestin2 and the human sphingosine-1-phosphate receptor 1 (NM_001400, S1P1) with a C-terminal Prolink™ tag were purchased from DiscoverX corporation (Cat #: 93-0207C2).
Cell lines were cultured in AssayComplete™ Media 6 (DiscoverX Corporation, Cat #: 920018GF2) at 37° C. and 5% CO2 in a humidified CO2 and temperature-controlled incubator. To begin assay plating, cells were washed with Dulbecco's phosphate buffered saline (CellGro, Cat #: 21-031-CV) and lifted from the culturing flask by incubation (37° C., 5 min) with CellStripper (Cellgro, Cat #: 25-056-CI). […] Plated cells were incubated overnight at 37° C. and 5% CO2 in a humidified CO2 and temperature-controlled incubator.
Agonist-promoted β-arrestin2 recruitment to the sphingosine-1-phosphate 1 receptor was determined using the β-arrestin PathHunter® Detection kit (DiscoverX Corporation, Cat #: 93-0001). […] In cells that stably express these fusion proteins, stimulation with a cognate agonist results in the interaction of β-arrestin2 and the Prolink™-tagged GPCR. This allows the complementation of the two β-galactosidase fragments and results in the formation of a functional enzyme with β-galactosidase activity. […] Following a 60 minute incubation at 37° C. and 5% CO2 in a humidified CO2 and temperature-controlled incubator, the components of the β-arrestin PathHunter® Detection kit were added as per the manufacturer's instructions. After an hour incubation at room temperature, plates were analyzed by a BMG PheraStar microplate reader.
These values are normalized to fingolimod, a known agonist of the sphingosine-1-phosphate 1 receptor.
(Activated receptors often draw arrestin, which recruitment assays turn into a signal.)
Target sequence in this assay (P21453 whole entry): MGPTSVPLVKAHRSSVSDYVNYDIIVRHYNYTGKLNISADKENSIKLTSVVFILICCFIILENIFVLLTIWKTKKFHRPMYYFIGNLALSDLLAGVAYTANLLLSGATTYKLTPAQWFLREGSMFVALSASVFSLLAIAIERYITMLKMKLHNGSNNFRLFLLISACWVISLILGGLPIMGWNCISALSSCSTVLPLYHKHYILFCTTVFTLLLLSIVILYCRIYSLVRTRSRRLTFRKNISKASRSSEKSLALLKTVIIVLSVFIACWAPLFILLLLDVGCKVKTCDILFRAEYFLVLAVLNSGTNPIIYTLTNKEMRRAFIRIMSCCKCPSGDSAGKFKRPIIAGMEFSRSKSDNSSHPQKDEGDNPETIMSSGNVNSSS
Target sequence in this assay (P32121 whole entry partner): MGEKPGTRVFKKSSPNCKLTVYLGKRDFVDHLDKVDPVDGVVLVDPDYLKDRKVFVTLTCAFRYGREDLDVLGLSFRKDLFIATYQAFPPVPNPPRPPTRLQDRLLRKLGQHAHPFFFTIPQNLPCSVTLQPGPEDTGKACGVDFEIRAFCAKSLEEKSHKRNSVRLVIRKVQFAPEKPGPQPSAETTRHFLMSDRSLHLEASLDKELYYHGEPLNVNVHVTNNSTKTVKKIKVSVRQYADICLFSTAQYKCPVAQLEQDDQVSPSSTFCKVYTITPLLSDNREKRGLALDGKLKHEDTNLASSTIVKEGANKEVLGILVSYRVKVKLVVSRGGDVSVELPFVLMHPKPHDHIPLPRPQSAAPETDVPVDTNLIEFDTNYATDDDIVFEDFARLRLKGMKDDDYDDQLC

Assay [2] concerns the target T1, human sphingosine-1-phosphate receptor 1 (S1P1). The assay is described as follows: Inhibition of cAMP production (HTRF cAMP HiRange), S1P1 CHO-K1 cells. It counts as cell-based. To be noted: for Emax: CHO-K1, efficacy normalized to maximum efficacy of fingolimod, read-out: hS1P1 CAMP SPAN; for EC50: read-out: hS1P1 CAMP pEC50 (converted). The method, boiled down: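 CHO-K1 cells co-expressing human S1P1 (C-terminal ProLink tag) and EA-β-arrestin2, plated overnight; after 30 min compound incubation at 37 °C, intracellular cAMP measured by HTRF TR-FRET following 1 h at room temperature. Values normalized to fingolimod.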
Target sequence in this assay (P21453 whole entry): as the sequence (P21453 whole entry) above
A general note: Cyclic AMP is a second messenger, typically raised through Gs and lowered through Gi signalling.

[3] abbreviates: inhibition of cAMP production, S1P1.
Setting [4] is: CHO-K1, β-arrestin2 recruitment.
The mark [5] stands for this setting: inhibition of cAMP production, potency.

Regarding `CCC1(CC)CC(=O)c2cc(-c3nc(-c4ccoc4)no3)ccc2O1` [Compound 495, 2,2-diethyl-6-(3-(furan-3-yl)-1,2,4-oxadiazol-5-yl)chroman-4-one], the Emax in assay [1] (CHO-K1) and in assay [2] was more than 75% throughout. The EC50 is less than 10 µM in assay [1] (S1P1) and less than 0.316 µM in assay [2] (setting [3]).
`Brc1ccccc1-c1nc(-c2ccc3c(c2)nnn3Cc2ccccn2)no1` [Compound 45, 5-(2-bromophenyl)-3-(1-(pyridin-2-ylmethyl)-1H-benzo[d][1,2,3]triazol-5-yl)-1,2,4-oxadiazole]: the Emax in assay [1] (setting [4]) and in assay [2] (inhibition of cAMP production) was less than 75% throughout. Besides, the results for the EC50 in assay [1] (potency) and in assay [2] (setting [5]) were more than 10 µM and more than 0.316 µM, respectively.
Regarding `CSc1cccc(-c2nc(-c3ccc4c(c3)nnn4C3CCCC3)no2)c1` [Compound 47, 3-(1-cyclopentyl-1H-benzo[d][1,2,3]triazol-5-yl)-5-(3-(methylthio)phenyl)-1,2,4-oxadiazole], the Emax in assay [1] (setting [4]) and in assay [2] (inhibition of cAMP production) was less than 75% each time. The EC50 in assay [1] (potency) is more than 10 µM; in assay [2] (setting [5]) it was more than 0.316 µM.
Consider `COc1ccccc1-c1noc(-c2ccc3c(ccn3C(C)C)c2)n1` [Compound 372, 5-(1-isopropyl-1H-indol-5-yl)-3-(2-methoxy-phenyl)-1,2,4-oxadiazole], for which the Emax in assay [1] (CHO-K1) and in assay [2] was more than 75% each time. In addition, the EC50 in assay [1] (S1P1) is less than 10 µM; in assay [2] (setting [3]), less than 0.316 µM.
With `CC(C)n1nnc2cc(-c3nsc(-c4ccccc4O)n3)ccc21` [Compound 112, 2-{3-[1-(propan-2-yl)-1H-1,2,3-benzotriazol-5-yl]-1,2,4-thiadiazol-5-yl}phenol], the Emax in assay [1] (setting [4]) and in assay [2] (inhibition of cAMP production) was more than 75% each time. Moreover, the EC50 is less than 10 µM in assay [1] (potency) and less than 0.316 µM in assay [2] (setting [5]).
With `CCC1(CC)CC(=O)c2cc(-c3nc(-c4ccc5cnccc5c4)no3)ccc2O1` [Compound 522, 2,2-diethyl-6-(3-(isoquinolin-6-yl)-1,2,4-oxadiazol-5-yl)chroman-4-one], the Emax in assay [1] (CHO-K1) and in assay [2] was more than 75% in each case. Also, the EC50 in assay [1] (S1P1) is more than 10 µM; in assay [2] (setting [3]), more than 0.316 µM.
With `CC(C)Nc1ccc(-c2nnc(-c3ccc4c(c3)CCC(=O)N4)o2)cc1C#N` [Compound 473, 5-[5-(2-oxo-1,2,3,4-tetrahydroquinolin-6-yl)-1,3,4-oxadiazol-2-yl]-2-[(propan-2-yl)amino]benzonitrile], the Emax in assay [1] (CHO-K1) and in assay [2] was more than 75% in each case. The EC50 in assay [1] (S1P1) was less than 10 µM; in assay [2] (setting [3]), less than 0.316 µM.
For `CC(C)n1nnc2cc(-c3nc(-c4sccc4Cl)co3)ccc21` [Compound 463, 5-[4-(3-chlorothiophen-2-yl)-1,3-oxazol-2-yl]-1-(propan-2-yl)-1H-1,2,3-benzotriazole], the Emax in assay [1] (CHO-K1) and in assay [2] was more than 75% throughout. In addition, the values for the EC50 in assay [1] (S1P1) and in assay [2] (setting [3]) were less than 10 µM and less than 0.316 µM, respectively.
Turning to `CCC1(CC)CC(=O)c2cc(-c3nc(-c4ccc(N(C)C)cc4)no3)ccc2O1` [Compound 60, 6-(3-(4-(dimethyl-amino)phenyl)-1,2,4-oxadiazol-5-yl)-2,2-diethylchroman-4-one], the Emax in assay [1] (setting [4]) and in assay [2] (inhibition of cAMP production) was less than 75% each time. For the same molecule, the EC50 in assay [1] (potency) was more than 10 µM; in assay [2] (setting [5]), more than 0.316 µM.
`C=CCn1nnc2cc(-c3nc(-c4ccccc4)no3)ccc21` [Compound 270, 5-(3-phenyl-1,2,4-oxadiazol-5-yl)-1-(prop-2-en-1-yl)-1H-1,2,3-benzotriazole]: the Emax in assay [1] (setting [4]) and in assay [2] (inhibition of cAMP production) was less than 75% throughout. Also, the EC50 in assay [1] (potency) is more than 10 µM; in assay [2] (setting [5]), more than 0.316 µM.
For the molecule `Oc1ccc(-c2noc(-c3ccc4c(c3)nnn4C3CCCC3)n2)cc1` [Compound 13, 4-[5-(1-cyclopentyl-1H-1,2,3-benzotriazol-5-yl)-1,2,4-oxadiazol-3-yl]phenol], the Emax in assay [1] (setting [4]) and in assay [2] (inhibition of cAMP production) was less than 75% in each case. The EC50 is less than 10 µM in assay [1] (potency) and less than 0.316 µM in assay [2] (setting [5]).
In the case of `CC(C)Nc1ccc(-c2nnc(-c3ccc4c(c3)C(=O)NCC4)o2)cc1C#N` [Compound 638, 5-[5-(1-oxo-1,2,3,4-tetrahydroisoquinolin-7-yl)-1,3,4-oxadiazol-2-yl]-2-[(propan-2-yl)amino]benzonitrile], the Emax in assay [1] (CHO-K1) and in assay [2] was less than 75% each time. Besides, the values for the EC50 in assay [1] (S1P1) and in assay [2] (setting [3]) were more than 10 µM and less than 0.316 µM, respectively.
`CCn1nnc2cc(-c3noc(-c4ccccc4Br)n3)ccc21` [Compound 2, 5-(2-bromophenyl)-3-(1-ethyl-1H-benzo[d][1,2,3]triazol-5-yl)-1,2,4-oxadiazole]: the EC50 in assay [1] (potency) is less than 10 µM.
`CC(C)n1nnc2cc(-c3nc(-c4ccc5nc[nH]c5c4)no3)ccc21` [Compound 511, 5-[3-(1H-1,3-benzodiazol-6-yl)-1,2,4-oxadiazol-5-yl]-1-(propan-2-yl)-1H-1,2,3-benzotriazole]: in assay [2] (setting [3]), the EC50 is less than 0.316 µM.
Still for that read-out and setting: for `COc1cccnc1-c1noc(-c2ccc3c(c2)nnn3C(C)C)n1` [Compound 627, 5-(1-isopropyl-1H-benzo[d][1,2,3]triazol-5-yl)-3-(3-methoxypyridin-2-yl)-1,2,4-oxadiazole] the value was more than 0.316 µM.
On the same count and under the same terms, to `COc1cccc2nc(-c3ccc4c(c3)nnn4C(C)C)oc12` [Compound 515, 2-(1-isopropyl-1H-benzo[d][1,2,3]triazol-5-yl)-7-methoxy-benzo[d]oxazole] belongs less than 0.316 µM.
As for `N#Cc1cc(-c2nnc(-c3ccc4[nH]cnc4c3)o2)ccc1NCC1CC1` [Compound 357, 5-[5-(1H-1,3-benzo-diazol-5-yl)-1,3,4-oxadiazol-2-yl]-2-[(cyclopropylmethyl)amino]benzonitrile], the EC50 in assay [2] (setting [5]) was less than 0.316 µM.
For `Cc1ccccc1C(C)c1noc(-c2ccc3c(c2)nnn3C(C)C)n1` (stereo not drawn) [Compound 172, 5-{3-[1-(2-methyl-phenyl)ethyl]-1,2,4-oxadiazol-5-yl}-1-(propan-2-yl)-1H-1,2,3-benzotriazole], the EC50 in assay [2] (setting [5]) is more than 0.316 µM.
With `COc1cccc(-c2noc(-c3ccc4c(c3)nnn4C3CCCC3)n2)n1` [Compound 124, 1-cyclopentyl-5-[3-(6-methoxypyridin-2-yl)-1,2,4-oxadiazol-5-yl]-1H-1,2,3-benzotriazole], in assay [2] (setting [5]), the EC50 was more than 0.316 µM.
On the same count and under the same terms, for `COc1ccccc1-c1nnc(-c2ccc3c(c2)oc(=O)n3C)o1` [Compound 350, 6-[5-(2-methoxyphenyl)-1,3,4-oxadiazol-2-yl]-3-methyl-2,3-dihydro-1,3-benzoxazol-2-one] the value was more than 0.316 µM; for `COc1ccccc1-c1noc(-c2ccc3c(c2)nnn3C2CCOCC2)n1` [Compound 231, 5-[3-(2-methoxy-phenyl)-1,2,4-oxadiazol-5-yl]-1-(oxan-4-yl)-1H-1,2,3-benzotriazole], more than 0.316 µM.
As for `Cc1ccc2nc(-c3ccc4c(c3)nnn4C(C)C)oc2c1` [Compound 420, 2-(1-isopropyl-1H-benzo[d][1,2,3]triazol-5-yl)-6-methyl-benzo[d]oxazole], the EC50 in assay [2] (setting [3]) is less than 0.316 µM.
As to `CCC1(CC)CC(=O)c2cc(-c3nc(-c4ccc(Cl)cc4)no3)ccc2O1` [Compound 68, 6-[3-(4-chlorophenyl)-1,2,4-oxadiazol-5-yl]-2,2-diethyl-chroman-4-one], the EC50 in assay [2] (setting [5]) is more than 0.316 µM.
Same read-out and setting: to `Cc1ncc(-c2nc(-c3ccc4c(c3)nnn4C(C)C)no2)nc1C` [Compound 133, 5-(5,6-dimethylpyrazin-2-yl)-3-(1-isopropyl-1H-benzo[d][1,2,3]triazol-5-yl)-1,2,4-oxadiazole] belongs more than 0.316 µM.
On the same count and under the same terms, for `CC(=O)Nc1ccc(-c2noc(-c3ccc(NC(C)C)c(C#N)c3)n2)cc1` [Compound 316, N-(4-(5-(3-cyano-4-(isopropylamino)phenyl)-1,2,4-oxadiazol-3-yl)phenyl)acetamide] the value was less than 0.316 µM; for `N#Cc1cc(-c2nnc(-c3ccc4[nH]ncc4c3)o2)ccc1NCCF` [Compound 353, 2-[(2-fluoroethyl)amino]-5-[5-(1H-indazol-5-yl)-1,3,4-oxadiazol-2-yl]benzonitrile], less than 0.316 µM.
With `CC(C)n1nnc2cc(-c3nc(-c4cccs4)co3)ccc21` [Compound 459, 1-(propan-2-yl)-5-[4-(thiophen-2-yl)-1,3-oxazol-2-yl]-1H-1,2,3-benzotriazole], the EC50 in assay [2] (setting [3]) was more than 0.316 µM.

The values are drawn from patent US20230114241A1, “METHODS OF TREATING EPILEPSY USING THE SAME” (Trevena, Inc., priority 2019, published 2023).
